Reference: article PMC3085043 (Chemico-biological interactions, 2010)
Residue numbers refer to the chain shown, from its start. Like-named read-outs stand apart in the source and are kept apart here.

How the values were obtained:
[1] = target: T1, low-MW FAL-R and GGAL-R from stomach, lung and colon (Rattus norvegicus, UniProt D3ZF77); test: FAL-R/GGAL-R activity of low-MW reductases from rat stomach, lung and colon; format: biochemical; conditions: extra-hepatic enzymes (stomach, lung, colon)
T1 sequence (D3ZF77 1-324): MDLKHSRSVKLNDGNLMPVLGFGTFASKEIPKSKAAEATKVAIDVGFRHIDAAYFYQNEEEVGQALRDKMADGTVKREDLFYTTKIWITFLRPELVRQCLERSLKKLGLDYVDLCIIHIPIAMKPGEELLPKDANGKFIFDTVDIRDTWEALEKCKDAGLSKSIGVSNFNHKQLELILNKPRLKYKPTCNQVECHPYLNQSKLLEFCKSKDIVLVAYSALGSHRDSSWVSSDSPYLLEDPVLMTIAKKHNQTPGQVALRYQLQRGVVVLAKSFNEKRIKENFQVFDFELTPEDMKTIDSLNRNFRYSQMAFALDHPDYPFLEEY

AKR1C15 [2] = target: T2, AKR1C15 (Rattus norvegicus, UniProt D3ZF77); conditions: NADPH-linked reduction; reported values; cited from earlier work
AKR 1C2 = target: T3, AKR 1C2 (Homo sapiens, UniProt P52895); test: Kinetic constants for FAL and GGAL reduction, AKR1C2; format: biochemical
T3 sequence (P52895 1-323): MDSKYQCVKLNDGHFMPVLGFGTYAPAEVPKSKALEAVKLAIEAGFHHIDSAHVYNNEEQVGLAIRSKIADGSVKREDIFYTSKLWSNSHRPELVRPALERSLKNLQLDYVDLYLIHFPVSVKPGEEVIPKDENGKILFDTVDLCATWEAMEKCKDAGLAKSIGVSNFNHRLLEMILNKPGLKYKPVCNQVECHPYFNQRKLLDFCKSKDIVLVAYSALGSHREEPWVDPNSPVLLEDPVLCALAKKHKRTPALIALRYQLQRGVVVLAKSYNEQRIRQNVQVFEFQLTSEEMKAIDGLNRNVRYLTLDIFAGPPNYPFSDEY

[3] = target: dehydrogenase/reductase (SDR family) member 4 (Homo sapiens, UniProt Q9BTZ2); test: Reduction of FAL and GGAL by dehydrogenase/reductase; format: biochemical
human AKR 1B10 = conditions: 0.1 M potassium phosphate pH 7.4, 0.1 mM NADPH; cited from earlier work
AKR 1C4 = target: T4, AKR 1C4 (Homo sapiens, UniProt P17516); test: Kinetic constants for FAL and GGAL reduction, AKR1C4; format: biochemical; conditions: 0.1 M potassium phosphate pH 7.4, 0.1 mM NADPH
T4 sequence (P17516 1-323): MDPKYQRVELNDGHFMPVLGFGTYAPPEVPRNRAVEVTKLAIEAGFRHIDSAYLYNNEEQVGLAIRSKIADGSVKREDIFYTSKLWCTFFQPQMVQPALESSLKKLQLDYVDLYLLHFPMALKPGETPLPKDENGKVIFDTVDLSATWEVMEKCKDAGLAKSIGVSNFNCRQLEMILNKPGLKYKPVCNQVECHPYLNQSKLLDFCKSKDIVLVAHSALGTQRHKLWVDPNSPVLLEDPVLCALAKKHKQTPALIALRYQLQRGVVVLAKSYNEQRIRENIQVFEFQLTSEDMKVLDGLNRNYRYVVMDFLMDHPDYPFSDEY

AKR 1C3 = target: T5, AKR 1C3 (Homo sapiens, UniProt P42330); test: Kinetic constants for FAL and GGAL reduction, AKR1C3; format: biochemical; conditions: for Km / kcat: 0.1 M potassium phosphate pH 7.4, 0.1 mM NADPH
T5 sequence (P42330 1-323): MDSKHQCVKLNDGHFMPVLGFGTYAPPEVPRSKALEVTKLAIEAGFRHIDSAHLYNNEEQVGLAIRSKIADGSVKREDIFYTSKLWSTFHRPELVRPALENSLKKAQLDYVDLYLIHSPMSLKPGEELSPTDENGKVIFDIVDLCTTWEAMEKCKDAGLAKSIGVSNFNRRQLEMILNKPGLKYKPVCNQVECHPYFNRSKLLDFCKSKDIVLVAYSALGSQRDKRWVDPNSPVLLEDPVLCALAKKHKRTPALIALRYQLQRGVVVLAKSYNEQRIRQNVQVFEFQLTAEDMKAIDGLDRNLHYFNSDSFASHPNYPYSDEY

[4] = target: dicarbonyl-xylulose reductase (Homo sapiens, UniProt Q7Z4W1); test: Reduction of FAL and GGAL by dicarbonyl-xylulose reductase; format: biochemical
[5] = target: human carbonyl reductase 1 (Homo sapiens, UniProt P16152); test: Reduction of FAL and GGAL by carbonyl reductase 1; format: biochemical
AKR 1A1 = target: T6, AKR 1A1 (Homo sapiens, UniProt P14550); test: Kinetic constants for FAL and GGAL reduction, AKR1A1; format: biochemical
T6 sequence (P14550 1-325): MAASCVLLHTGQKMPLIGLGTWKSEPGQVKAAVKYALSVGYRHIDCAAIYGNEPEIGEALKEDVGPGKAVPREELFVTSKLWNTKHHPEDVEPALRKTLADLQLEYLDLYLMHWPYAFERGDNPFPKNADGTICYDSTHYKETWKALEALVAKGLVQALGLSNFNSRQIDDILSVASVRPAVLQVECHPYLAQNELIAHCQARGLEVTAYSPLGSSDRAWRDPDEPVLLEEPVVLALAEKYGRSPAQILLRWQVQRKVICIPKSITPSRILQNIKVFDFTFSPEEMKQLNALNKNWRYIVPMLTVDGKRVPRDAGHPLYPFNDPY

[6] = target: microsomal FAL-DH and GGAL-DH (Rattus norvegicus, UniProt P30839); test: NAD+-linked FAL-DH/GGAL-DH activity of solubilized hepatic microsomes; format: biochemical; conditions: solubilized hepatic microsomes, NAD+-linked oxidation
human AKR 1B1 = conditions: cited from earlier work
AKR 1C1 = target: T7, AKR 1C1 (Homo sapiens, UniProt Q04828); test: Kinetic constants for FAL and GGAL reduction, AKR1C1; format: biochemical
T7 sequence (Q04828 1-323): T3 sequence (P52895 1-323) with V38T, H47R, V54L, S87C, M151V, H170R, L172Q

[7] = target: T8, purified hepatic FAL-R (AKR1C9) (Rattus norvegicus, UniProt P23457); test: Reductase activity of hepatic low-MW FAL-R purified to homogeneity; conditions: purified liver enzyme
T8 sequence (P23457 1-322): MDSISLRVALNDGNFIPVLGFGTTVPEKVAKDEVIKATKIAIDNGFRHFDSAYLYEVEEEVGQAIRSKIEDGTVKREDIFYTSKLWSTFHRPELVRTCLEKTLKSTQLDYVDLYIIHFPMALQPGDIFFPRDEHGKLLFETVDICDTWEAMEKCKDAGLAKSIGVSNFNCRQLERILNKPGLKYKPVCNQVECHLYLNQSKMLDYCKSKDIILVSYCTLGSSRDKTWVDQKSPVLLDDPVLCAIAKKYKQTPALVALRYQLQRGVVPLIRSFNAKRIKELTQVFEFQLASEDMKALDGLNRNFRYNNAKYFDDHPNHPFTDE

[8] = test system: low-MW FAL-R and GGAL-R from liver; test: FAL-R/GGAL-R activity of low-MW reductase from rat liver; format: biochemical; conditions: liver low-MW reductase
AKR1C15 [9] = target: T2, AKR1C15; test: Reduction of isoprenyl aldehydes by AKR1C15; format: biochemical; conditions: NADPH-linked reduction
[10] = 0.1 M potassium phosphate pH 7.4, 0.1 mM NADPH
[11] = calculated from the specific activity with 10 μM GGAL

Chain of microsomal FAL-DH and GGAL-DH (P30839 whole entry): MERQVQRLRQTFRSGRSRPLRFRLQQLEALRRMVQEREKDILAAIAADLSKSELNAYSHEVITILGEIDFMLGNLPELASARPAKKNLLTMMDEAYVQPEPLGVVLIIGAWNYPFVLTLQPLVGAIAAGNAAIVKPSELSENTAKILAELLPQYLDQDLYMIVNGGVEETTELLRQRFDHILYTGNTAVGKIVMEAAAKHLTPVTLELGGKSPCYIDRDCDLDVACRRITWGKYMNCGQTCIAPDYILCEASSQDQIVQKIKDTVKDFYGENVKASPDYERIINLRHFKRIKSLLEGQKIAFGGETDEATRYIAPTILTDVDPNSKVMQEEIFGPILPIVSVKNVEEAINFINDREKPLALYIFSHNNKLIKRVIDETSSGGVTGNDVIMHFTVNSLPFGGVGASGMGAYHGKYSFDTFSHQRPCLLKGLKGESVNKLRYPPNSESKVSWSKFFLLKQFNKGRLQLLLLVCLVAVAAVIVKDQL
Chain of human carbonyl reductase 1 (P16152 whole entry): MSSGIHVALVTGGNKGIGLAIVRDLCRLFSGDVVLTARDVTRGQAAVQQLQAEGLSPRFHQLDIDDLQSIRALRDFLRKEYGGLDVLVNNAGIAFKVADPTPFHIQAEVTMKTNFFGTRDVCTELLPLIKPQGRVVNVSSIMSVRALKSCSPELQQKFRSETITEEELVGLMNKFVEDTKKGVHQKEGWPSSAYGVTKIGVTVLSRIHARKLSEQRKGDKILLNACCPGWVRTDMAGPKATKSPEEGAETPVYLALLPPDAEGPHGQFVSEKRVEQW
Chain of dehydrogenase/reductase (SDR family) member 4 (Q9BTZ2 whole entry): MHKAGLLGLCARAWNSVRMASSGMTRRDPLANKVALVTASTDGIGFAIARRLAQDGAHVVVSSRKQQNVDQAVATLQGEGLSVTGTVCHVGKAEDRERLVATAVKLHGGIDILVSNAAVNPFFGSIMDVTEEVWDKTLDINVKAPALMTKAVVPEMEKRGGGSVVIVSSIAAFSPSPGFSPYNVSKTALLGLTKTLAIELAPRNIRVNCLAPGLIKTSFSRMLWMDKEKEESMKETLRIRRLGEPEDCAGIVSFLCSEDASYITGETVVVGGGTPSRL
Chain of dicarbonyl-xylulose reductase (Q7Z4W1 whole entry): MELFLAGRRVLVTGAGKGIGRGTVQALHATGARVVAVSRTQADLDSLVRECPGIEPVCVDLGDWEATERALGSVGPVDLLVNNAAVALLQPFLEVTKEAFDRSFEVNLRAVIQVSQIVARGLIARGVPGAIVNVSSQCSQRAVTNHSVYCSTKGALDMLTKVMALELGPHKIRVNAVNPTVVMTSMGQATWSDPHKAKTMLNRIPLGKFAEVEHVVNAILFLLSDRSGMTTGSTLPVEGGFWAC

| SMILES | Km [1] [µM] | reduction by the enzyme [3] | Km (human AKR 1B10) [µM] | kcat (human AKR 1B10) [s⁻¹] | Km (AKR 1C4) [µM] | kcat (AKR 1C4) [s⁻¹] | Km (AKR 1C3) [µM] | kcat (AKR 1C3) [s⁻¹] | reduction by the enzyme [4] | reduction by the enzyme [5] | Km [6] [µM] | Vmax [6] [mU/mg] | Km [7] [µM] | Km [8] [µM] | further results |
| --- | --- | --- | --- | --- | --- | --- | --- | --- | --- | --- | --- | --- | --- | --- | --- |
| CC(C)=CCCC(C)=CCCC(C)=CC=O [FAL, farnesal] | 6 to 8 | hardly reduced | 2.5 | 0.383 | 4.7 | 0.0183 | 2.6 | 0.045 | hardly reduced | hardly reduced | 2 | 12 | 30 | 26 | Km (AKR1C15 [2]): 5.6 µM; Km (AKR 1C2; [10]): 1.1 µM; kcat (AKR 1C2; [10]): 0.03 s⁻¹; Km (AKR 1A1; [10]): 60 µM; kcat (AKR 1A1; [10]): 0.217 s⁻¹; Km (human AKR 1B1; [10]): 37 µM; kcat (human AKR 1B1; [10]): 0.45 s⁻¹; Km (AKR 1C1; [10]): 3.1 µM; kcat (AKR 1C1; [10]): 0.0283 s⁻¹ |
| CC(C)=CCC/C(C)=C/CC/C(C)=C/CC/C(C)=C/C=O [GGAL, geranylgeranial] | 0.2 to 0.5 | hardly reduced | 0.9 | 0.125 | 1.1 | 0.0147 | 0.3 | 0.06 | hardly reduced | hardly reduced | 0.7 | 4.2 | 3.9 | 2.1 | kcat (value in parenthesis) (AKR 1C2; [11]): (0.4) ^b min^−1; Km (AKR1C15 [9]): 0.2 µM; kcat/Km value relative to that for prostaglandin D2 (AKR 1C3; higher than for prostaglandin D2, best known endogenous substrate): 12 fold; kcat (value in parenthesis) (AKR 1A1; [11]): (0.8) ^b min^−1; kcat (value in parenthesis) (human AKR 1B1; [11]): (0.3) ^b min^−1; kcat (value in parenthesis) (AKR 1C1; [11]): (0.3) ^b min^−1 |
